Data from US20240058349A1, “PI3K INHIBITORS FOR PROTECTION AGAINST GLUCOCORTICOID-INDUCED ATROPHY” (Northwestern University, priority 2020, published 2024).

Tests used:
CEM cells [1] = test: MTT cell viability / cytotoxicity assay in CEM cells; format: cell-based, human; details: for IC50: Homo sapiens, CCRF-CEM, MTT assay, after 24 h treatment
Method: (§1) Cell cultures. Acute lymphoblastic leukemia cell line CEM and mantle cell lymphoma cell line Granta were obtained from ATCC and cultured in RPMI-1640 (Thermo Fischer) with 10% FBS (HyClone), sodium piruvate (10 mM), HEPES (10 mM) and antibiotics (referred thereafter as complete medium; Thermo Fischer) (Ref 14; incorporated by reference in its entirety). Peripheral blood samples were collected from healthy volunteers. The ethical Committee of the Blokhin Cancer Research Center approved this study, written informed consents were provided. Mononuclear cell fraction was isolated by 1.077 g/ml Ficoll-Isopaque density-gradient centrifugation and cultured in the complete medium. Cells were pretreated with Rapa (0.1-5 uM), LY294002 (10-100 uM), WM (1-10 uM) and AZD8055 (0.1-2 uM) or vehicle for 6 h, then were treated for Dex (1-10 uM) or vehicle for 24-144 h as indicated.
(§2) Analysis of cell viability and apoptosis induction. Cell viability was assessed using the MTT assay as follows: cells were incubated at 37° C. for 3 h with 20 ul of MTT solution (5 mg/ml). Supernatant was discarded and 150 μL of 100% DMSO was added to each well. Optical density was measured at 495 nm using a microplate reader MultiScan MCC 340 (Labsystems). The IC50 values was calculated using Quest Graph IC50 Calculator free software. Isobolograms were constructed (Ref 15; incorporated by reference in its entirety). IC50 values of PI3K inhibitors or Dex as single agents were plotted as 1 on the x and y axes, respectively. Various concentrations of PI3K inhibitors and for Dex were combined. The IC50 values for each compound in the combination were calculated and plotted as a percentage of each single drug. The disposition of data points below, above or on the line of additivity indicates synergy, antagonism or additivity, correspondingly.
(§3) PI3K/Akt/mTOR inhibitors were developed as anti-cancer drugs. To assess whether and how PI3K/Akt/mTOR inhibitors interacted with Dex anti-lymphoma effects, experiments were conducted to evaluate the efficacy of the combined treatment in vitro using such readouts as cell viability (MTT test) and apoptosis (PARP cleavage and sub-G1-phase cell population determined by FACS).

Granta cells [2] = test: MTT cell viability / cytotoxicity assay in Granta cells; format: cell-based, human; details: for IC50: Homo sapiens, MTT assay, after 24 h treatment
Method: as §1, §2, §3

[3] = test system: Dex-induced osteoporosis and skin atrophy; test: Glucocorticoid-induced osteoporosis (GIOP) and skin atrophy model; format: in vivo, BALB/c female mice
Method: Glucocorticoid-induced osteoporosis (GIOP). GIOP was induced as described (18) by i.p. injection of Dex (10 mg/kg) in 12 weeks old BALB/c female mice (“Stolbovaya”, Moscow region, Russia) every 48 h for 5 weeks. 6 h prior to Dex, animals were treated i.p. with LY294002 (20 mg/kg), Rapamycin (5 mg/kg) of vehicle (30% PEG3350, 4% DMSO, 5% Tween-20 in PBS). Body weight was recorded twice a week.
Histological analysis and immunostaining. Xenograft and skin samples were fixed in formaldehyde, embedded in paraffin, sections were stained with hematoxylin and eosin. The bone samples after formaldehyde fixation were decalcinated in decalcination buffer (0.5 M EDTA, 0.7 mM NaOH, pH=7.0) for 14 days, then washed with PBS twice and further processed according to standard histology protocol. Ki67 and Caspase 3 were detected by immunostaining with antibodies to Ki-67 and Caspase-3 (Cell Signaling, San Jose, CA).
Morphometric analysis. Quantification of the epidermal width, dermal adipose thickness, bone thickness and cellularity of xenograft tissue was performed in sections stained with hematoxylin and eosin. At least 5 individual fields per slide of each individual sample/treatment (at least 50 images/treatment group) were analyzed using Axioplan2 microscope software (Carl Zeiss). The epidermal, dermal adipose, or bone thickness and cell density in treated animals is presented as % to control animals.
To test whether REDD1 inhibitors protect against systemic atrophic effects of Gcs, a model of Gcs-induced osteoporosis in Balb/c female mice was used (18) to assess atrophy in both bone and skin induced by high-dose i.p. Dex injections (10 mg/kg) every 48 h for 5 weeks. LY294002 (20 mg/kg), Rapa (5 mg/kg) or vehicle were injected 6 h prior animal treatment with Dex.

Granta xenografts = test: Granta lymphoma xenograft tumor growth study; format: in vivo, nu/nu mice; details: 27th day of treatment, vs control; i.p. every 48 h; LY294002 20 mg/kg, Rapa 5 mg/kg, Dex 1 mg/kg
Method: Xenograft tumor growth study. 10 million Granta cells in 200 ul BD Matrigel Matrix were subcutaneously injected into the right flank of 7 weeks old female nu/nu mice (Taconic). Animals were randomized and treated every 48 h with LY294002 (20 mg/kg), Rapamycin (5 mg/kg) of vehicle (30% PEG3350, 4% DMSO, 5% Tween 20 in PBS) followed by Dex (1 mg/kg) of vehicle (5% DMSO in PBS) 6 h later. Body weight was recorded twice a week. Tumor size was measured twice a week by digital calipers, drug interaction mode was calculated based on combination index method (Refs. 16,17; incorporated by reference in their entireties). Combination index (CI) of Dex+Rapa/LY294002 was calculated as ratio (observed fraction value of combination group)/(expected fraction value of combination group). The observed fractions were calculated as ratio (mean value of experiment)/(mean value of control), and the expected fractions values of combination effect between combined groups and single drug groups were calculated as expected fraction=(mean observed fraction of Dex)×(mean observed fraction of Rapa/LY294002). CI<1, CI=1 and CI>1 indicates a synergy, additive effect and antagonism, respectively.
Histological analysis and immunostaining. […] Ki67 and Caspase 3 were detected by immunostaining with antibodies to Ki-67 and Caspase-3 (Cell Signaling, San Jose, CA).
Morphometric analysis. Quantification of the epidermal width, dermal adipose thickness, bone thickness and cellularity of xenograft tissue was performed in sections stained with hematoxylin and eosin. At least 5 individual fields per slide of each individual sample/treatment (at least 50 images/treatment group) were analyzed using Axioplan2 microscope software (Carl Zeiss). […]
Animals were randomized to different treatment groups after tumor volume reached 50 mm3. […] All treatment regiments were only minimally toxic according to the steady increase in body weight monitored twice weekly (FIG. 11). Tumor volume was measured also twice a week (FIG. 12).

Granta cells [4] = test: Apoptosis induction (PI staining sub-G1, PARP cleavage) in Granta cells; format: cell-based, human
Method: (§4) Apoptosis induction was evaluated using Western blot analysis of PARP cleavage and propidium iodine (PI) staining (Ref. 14; incorporated by reference in its entirety).
(§5) Cooperative anti-lymphoma effects of Dex and PI3K/Akt/mTOR inhibitors in vitro. PI3K/Akt/mTOR inhibitors were developed as anti-cancer drugs. To assess whether and how PI3K/Akt/mTOR inhibitors interacted with Dex anti-lymphoma effects, experiments were conducted to evaluate the efficacy of the combined treatment in vitro using such readouts as cell viability (MTT test) and apoptosis (PARP cleavage and sub-G1-phase cell population determined by FACS). The cytotoxic effect of Dex and PI3K inhibitors in wide concentration range (LY294002 1-500 uM, WM 0.1-25 uM, AZD8055 0.05-5 uM) was assessed (FIG. 8) and determined IC50 values after 24 h treatment (Table 8).
(§6) The effect of Dex combined with LY294002, AZD8055, WM or reference inhibitor Rapa was examined on apoptosis.

GR [5] = test: GRE.Luciferase reporter assay (GR transactivation) in CEM and Granta cells; format: cell-based, human
Method: Luciferase assay. GRE.Luc, NF-κB.Luc and control mCMV.Luc reporter cells were generated (Ref. 13; incorporated by reference in its entirety) using viral stocks obtained from Northwestern University SDRC DNA/RNA delivery Core. Luciferase activity was measured (Ref. 10; incorporated by reference in its entirety).
REDD1 is a GR target gene (Refs. 10,21; incorporated by reference in their entireties). To assess whether REDD1 inhibitors could modify GR function, LY294002, WM and AZD8055 effect on GR TA and TR was evaluated using CEM and Granta cells transduced with GRE.Luc and NF-kB.Luc reporters. […] Luciferase activity in both cell lines (FIG. 2A, C). […] Attenuation of GR TA was further confirmed by Q-PCR analysis of known GR-target genes including GR chaperone FKBP51 (Refs. 12,14; incorporated by reference in their entireties), mediator of Gcs anti-inflammatory effects GILZ (22,23), transcriptional activator KLF9 (24) and inhibitor of cytokine production MKP-1 (25) (FIG. 2B, D and FIG. 7A, B).

REDD1 = REDD1 mRNA/protein expression (Q-PCR, Western blot) in CEM and Granta cells; format: cell-based, human
Method: as §1
(§7) Western blot analysis. Western blot analysis was performed (Ref 10; incorporated by reference in its entirety). The following antibodies were used: GR (H-300) (Santa Cruz Biotechnology, Dallas, TX), phospho-GR (Ser211), phospho-4E-BP1 (Thr37/46), phospho-Akt (Ser473), Akt, 4E-BP1, cleaved and full-length PARP, GAPDH, HDAC1 (Cell Signaling, San Jose, CA), REDD1 (Proteintech Group, Rosemont, IL).
RNA extraction and Q-PCR. […]

GR [6] = test: Western blot of GR nuclear translocation; format: cell-based, human; details: CEM and Granta cells; LY294002 50 uM, AZD8055 1 uM, Dex 1 uM 24 h
Method: as §7
To identify the molecular mechanisms underlying GR functional changes induced by PI3K/Akt/mTOR inhibitors, the effect of these compounds on major steps in GR activation was assessed: GR phosphorylation at Ser211 and nuclear translocation that are critical for GR TA (Refs. 27,28; incorporated by reference in their entireties).

CEM cells [7] = test: Apoptosis induction (PI staining sub-G1, PARP cleavage) in CEM cells; format: cell-based, human
Method: as §4, §5, §6

[8] = used alone for 6 days, LY294002 50 uM, AZD8055 1 uM, WM 10 uM, Dex 1 uM
[9] = systemic Dex 10 mg/kg every 48 h, 5 weeks, LY294002 20 mg/kg
[10] = combination with Dex, IC50 after 24 h treatment

**Q.** With C[C@@H]1C[C@H]2[C@@H]3CCC4=CC(=O)C=C[C@]4(C)[C@@]3(F)[C@@H](O)C[C@]2(C)[C@@]1(O)C(=O)CO [Dexamethasone] as the compound, how does the “decrease of CEM survival” value (CEM cells [1]; [8]) read?
**A.** Its value is 50-55%.

**Q.** What about the “decrease of Granta survival” value (Granta cells [2]; [8]) of the same compound?
**A.** The value was 50-55%.

**Q.** And the femoral bone thickness ([3]; Dex 10 mg/kg vs control)?
**A.** Its femoral bone thickness is “tendency in decrease”.

**Q.** What about the “reduction in dermal adipose thickness” value [3, 9] of the same compound?
**A.** The value was roughly 70%.

**Q.** And the “reduction in epidermal thickness” value [3, 9]?
**A.** Its value is roughly 50%.

**Q.** What about the “decrease in tumor volume” value (Granta xenografts) of the same compound?
**A.** The value was roughly 40%.

**Q.** How did the IC50 (CEM cells [1]) turn out when O=c1cc(N2CCOCC2)oc2c(-c3ccccc3)cccc12 [LY294002] was run?
**A.** The IC50 was 62 µM.

**Q.** And the IC50 (Granta cells [2])?
**A.** The IC50 was 77.6 µM.

**Q.** And the “decrease in tumor volume” value (Granta xenografts)?
**A.** Its value is roughly 70%.

**Q.** With COc1ccc(-c2ccc3c(N4CCOC[C@@H]4C)nc(N4CCOC[C@@H]4C)nc3n2)cc1CO [AZD8055] as the compound, how does the “apoptosis (sub-G1-phase cell population), used alone, Granta cells” value (Granta cells [4]) read?
**A.** The value was “stimulated apoptosis”.

**Q.** What about the IC50 (CEM cells [1]) of the same compound?
**A.** Its IC50 is 1.36 µM.

**Q.** What about the “type of interaction with Dex (isobologram analysis), CEM cells” value (CEM cells [1]; [10]) of the same compound?
**A.** Its value is “mostly additive”.

**Q.** And the IC50 (Granta cells [2])?
**A.** The IC50 was 2.02 µM.

**Q.** What about the “type of interaction with Dex (isobologram analysis), Granta cells” value (Granta cells [2]; [10]) of the same compound?
**A.** The value was “mostly additive”.

**Q.** And the “Dex-induced GRE.Luciferase activity” value (GR [5]; 6 h pre-treatment, Dex 1 uM 24 h)?
**A.** Its value is “inhibited Dex-induced GRE. Luciferase activity”.

**Q.** What about the “basal GR activity (GRE.Luciferase)” value (GR [5]; applied individually) of the same compound?
**A.** Its value is “negatively affected basal GR activity”.

**Q.** What about the “effect on REDD1 induction by Dex” value (REDD1; CEM and Granta cells, 6 h pre-treatment (LY294002 50 uM, WM 10 uM, AZD8055 1 uM), then Dex 24 h) of the same compound?
**A.** Its value is “prevented REDD1 induction”.

**Q.** And the “basal REDD1 expression” value (REDD1; inhibitor without Dex, mRNA in CEM cells, protein more pronounced in Granta cells)?
**A.** Its value is “blocked basal and glucocorticoid-induced REDD1 expression”.

**Q.** And the GR nuclear import (GR [6])?
**A.** Its GR nuclear import is “significantly prevented GR nuclear import”.

**Q.** What about the “apoptosis (sub-G1-phase cell population), used alone, CEM cells” value (CEM cells [7]) of the same compound?
**A.** The value was “stimulated apoptosis”.

**Q.** Which “decrease in tumor volume” value (Granta xenografts) does the source give for CO[C@H]1C[C@@H]2CC[C@@H](C)[C@@](O)(O2)C(=O)C(=O)N2CCCC[C@H]2C(=O)O[C@H]([C@H](C)C[C@@H]2CC[C@@H](O)[C@H](OC)C2)CC(=O)[C@H](C)/C=C(\C)[C@@H](O)[C@@H](OC)C(=O)[C@H](C)C[C@H](C)/C=C/C=C/C=C/1C [Rapamycin] here?
**A.** Its value is roughly 75%.

**Q.** Which IC50 (CEM cells [1]) does the source give for COC[C@H]1OC(=O)c2coc3c2[C@@]1(C)C1=C(C3=O)[C@@H]2CCC(=O)[C@@]2(C)C[C@H]1OC(C)=O [Wortmannin] here?
**A.** The IC50 was 9.14 µM.

**Q.** And the IC50 (Granta cells [2])?
**A.** Its IC50 is 11.9 µM.
